# Patent publication US5679321A, “Sialic acid/fucose based medicaments” (Glycomed Incorporated, priority 1995, dated 1997)
# Tests used:
# L-selectin IgG chimera = molecular target: T1, L-selectin IgG chimera (Homo sapiens, UniProt P14151); assay: ELISA: blocking of L-selectin IgG chimera binding to 2,3sLex glycolipid
# T1 sequence (P14151 39-332 limits assumed): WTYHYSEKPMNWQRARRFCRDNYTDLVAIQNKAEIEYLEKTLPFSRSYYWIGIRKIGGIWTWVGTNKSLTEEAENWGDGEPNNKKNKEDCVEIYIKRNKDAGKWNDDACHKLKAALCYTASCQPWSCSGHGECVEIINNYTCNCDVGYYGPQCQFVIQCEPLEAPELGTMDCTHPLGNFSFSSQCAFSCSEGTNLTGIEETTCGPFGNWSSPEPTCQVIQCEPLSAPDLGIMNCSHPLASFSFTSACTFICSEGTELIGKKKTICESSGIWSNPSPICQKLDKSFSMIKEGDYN
# From the text: (§1) An ELISA assay was employed that uses recombinant fusion proteins composed of extracellular portions of the human selectins joined to human immunoglobulin heavy chain CH3, CH2, and hinge regions. See, for example, Walz et al., Science (1990) 250:1132; Aruffo et al., Cell (1991) 67:35; Aruffo et al., Proc. Natl. Acad. Sci. USA (1992) 89:2292. The assay is well known in the art, and generally consists of the following three steps:
# (§2) I. 2,3sLex glycolipid (25 picomole/well) was transferred into microtiter wells as solutions and then evaporated off. Excess, which remained unattached, was washed off with water. The wells were then blocked with 5% BSA at room temperature for an hour and then washed with PBS containing 1 mM calcium.
# II. […]
# (§3) The positive control is the signal produced by the soluble receptor when it is allowed to react with 2,3sLex glycolipid in the microtiter wells in the absence of any inhibitor. […] The signal produced by the receptor that had been previously treated with an inhibitor (recorded as O.D.), was divided by the signal produced by the positive control and multiplied by 100 to calculate the % receptor bound to the well, or as expressed in the figures, the per cent of control binding. […]
# [1] = test system: neutrophil migration to the peritoneal cavity; assay: murine thioglycollate induced peritonitis model; format: in vivo, female Swiss Webster mice; settings: FIG. 7; for inhibition of neutrophil migration into the peritoneum: compound in PBS by tail vein, thioglycollate intraperitoneally, cells counted after three hours
# From the text: The efficaciousness of GM 1221, and GM 1398 was shown using a murine thioglycollate induced peritonitis model. The assay materials and methods are known in the art, or are generally described by Lewinsohn, D. et al., J. Immun., 138:4313-4321 (1987), or Watson, S. et.al., Nature 349:164-166 (1991).
# This assay measures the abili:ty of the compounds to inhibit neutrophil migation to the peritoneal cavity, the migration being initiated by the presence of thioglycollate in the peritoneal cavity. Thioglycollate is a known and effective inflammatory agent that causes neutrophil migration into the mouse peritoneum when it is administered intraperitoneally. Lewinsohn, D. et al., J. Immun. (1987) 138:4313-4321.
# Briefly, female Swiss Webster mice weighing about 25 grams were injected in the tail vein with 200 ul of phosphate buffered saline (PBS) with or without the appropriate compound. The pH of the solutions was adjusted to neutrality by the addition of either NaOH or HCL and sterilized by filtration through a 0.2 u filter.
# Immediately following injection with the appropriate compound or PBS, the mice were injected intraperitoneally with 1 ml of thioglycollate medium prepared as described by the manufacturer, BBL. Three hours following injection of the thioglycollate solution the mice were sacrificed by CO2 asphyxiation, and the number of cells in the peritoneum removed by lavage with 5 ml of heparinized (5U/ml) 0.9%. sodium chloride solution containing 0.1% bovine serum albumin. Cell number was determined using a Coulter Counter. The cells were prepared for counting by diluting the lavage fluid with 1:50 of a commercial physiological isotonic solution, Isoton II, and the cells lysed by adding S/P Lysing and Hemoglobin Reagent (1:100 final dilution). Cell nuclei were counted in a sized window with lower and upper limits set at 3.9 and 5.7 um, respectively.
# E-selectin IgG chimera = assay: ELISA: blocking of E-selectin IgG chimera binding to 2,3sLex glycolipid; parameters: species or system human; settings: FIG. 4; several concentrations
# From the text: as §1, §2
# II. […]
# as §3
"inhibitory activity on L-selectin binding at all four concentrations tested (L-selectin IgG chimera; FIG. 6, all four concentrations of the compound tested)",Compound,"inhibition of L-selectin binding to 2,3sLex glycolipid (per cent of control binding) (L-selectin IgG chimera; FIG. 5 and FIG. 6, several concentrations)",inhibition of neutrophil migration into the peritoneum [1],more neutrophil migration inhibited than GM 1221 ([1]; relative to GM 1221),"inhibition of E-selectin binding to 2,3sLex glycolipid (per cent of control binding) (E-selectin IgG chimera)"
–,"CC(=O)NC1C(O)CC(OCCCCCCOC2OC(C)C(O)C(O)C2O)(C(=O)O)OC1C(O)C(O)CO [GM 1398, 1-O-α-Neu5Ac-(6-O-α-L-Fucopyranosyl)-Hexane]",inhibit L-selectin binding in a concentration dependent manner,inhibit neutrophil migration into the peritoneum,about 30%,inhibit E-selectin binding
significant inhibitory activity,CC(OCCCCCCOC1O[C@@H](C)[C@@H](O)[C@@H](O)[C@@H]1O)C(=O)O (stereo partly drawn) [GM 1221],–,inhibit neutrophil migration into the peritoneum,–,–
